Results reported in PubChem BioAssay AID330 (DTP/NCI, 2004).
Several values for one entry are separate records, joined by “and”; a condition that tells them apart may be missing. Equal entries are not always repeated. Inconclusive results and toxic doses are left out. How the source made its calls: active means survival T/C of 150% or more; inactive means T/C below 125% in these data.

System: P388 leukemia ip, CD2F1 mice, survival T/C
Assay: NCI In Vivo Anticancer Drug Screen. Data for tumor model P388 Leukemia (intraperitoneal) in CD2F1 (CDF1) mice
Conditions: endpoint: median survival time, higher = longer survival
Outline: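 Mice carrying the transplanted tumor received test compound or vehicle. Survival was recorded in each group, and the value is the treated-group measurement divided by that of the vehicle-treated control group.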

[1] = dose: 50.0 mg/kg/injection, schedule: Q01DX009 (ip), vehicle: Klucel (hydroxypropylcellulose) (HPC)
[2] = dose: 100.0 mg/kg/injection, schedule: Q01DX009 (ip), vehicle: Klucel (hydroxypropylcellulose) (HPC)
[3] = dose: 200.0 mg/kg/injection, schedule: Q01DX009 (ip), vehicle: Klucel (hydroxypropylcellulose) (HPC)
[4] = dose: 60.0 mg/kg/injection, schedule: Q01DX005 (ip), vehicle: saline with Tween-80
[5] = dose: 120.0 mg/kg/injection, schedule: Q01DX005 (ip), vehicle: saline with Tween-80
[6] = dose: 240.0 mg/kg/injection, schedule: Q01DX005 (ip), vehicle: saline with Tween-80
[7] = dose: 100.0 mg/kg/injection, schedule: Q01DX009 (ip), vehicle: saline
[8] = dose: 200.0 mg/kg/injection, schedule: Q01DX009 (ip), vehicle: saline
[9] = dose: 50.0 mg/kg/injection, schedule: Q01DX009 (ip), vehicle: saline with Tween-80
[10] = dose: 100.0 mg/kg/injection, schedule: Q01DX009 (ip), vehicle: saline with Tween-80
[11] = dose: 200.0 mg/kg/injection, schedule: Q01DX009 (ip), vehicle: saline with Tween-80

Measured: T/C

CC12CC3(C)CC(C)(C1)CC(C(Cl)C(=O)NC1CCCCC1)(C2)C3 (configuration not stated)
inactive: [1] 110 % of control | [2] 107 % of control | [3] 97 % of control

CC12OC(=O)C(C(N)=O)=C1C=C(c1ccccc1)CC2c1ccccc1 (configuration not stated)
inactive: [4] 96 % of control | [5] 96 % of control | [6] 89 % of control

Cc1ccc(S(=O)(=O)Oc2ccc3c(/C=C/[N+](=O)[O-])cn(C)c3c2)cc1
inactive: dose: 50.0 mg/kg/injection, schedule: Q01DX001 (ip), vehicle: Klucel (hydroxypropylcellulose) (HPC) 90 % of control | dose: 100.0 mg/kg/injection, schedule: Q01DX001 (ip), vehicle: Klucel (hydroxypropylcellulose) (HPC) 86 % of control | dose: 200.0 mg/kg/injection, schedule: Q01DX001 (ip), vehicle: Klucel (hydroxypropylcellulose) (HPC) 101 % of control

CC(C)COC(=O)N(CCCl)N=O
inactive: dose: 0.62 mg/kg/injection, schedule: Q01DX009 (ip), vehicle: saline with Tween-80 100 % of control and 111 % of control | dose: 1.25 mg/kg/injection, schedule: Q01DX001 (ip), vehicle: saline with Tween-80 103 % of control | dose: 1.25 mg/kg/injection, schedule: Q01DX009 (ip), vehicle: saline with Tween-80 108 % of control and 116 % of control | dose: 2.5 mg/kg/injection, schedule: Q01DX001 (ip), vehicle: saline with Tween-80 100 % of control | dose: 2.5 mg/kg/injection, schedule: Q01DX009 (ip), vehicle: saline with Tween-80 112 % of control and 115 % of control and 120 % of control | dose: 5.0 mg/kg/injection, schedule: Q01DX001 (ip), vehicle: saline with Tween-80 100 % of control and 112 % of control | dose: 5.0 mg/kg/injection, schedule: Q01DX009 (ip), vehicle: saline with Tween-80 100 % of control and 97 % of control | dose: 10.0 mg/kg/injection, schedule: Q01DX001 (ip), vehicle: saline with Tween-80 90 % of control

Cc1ccc2c(C(=O)O)cc(-c3ccc4c(c3)OCO4)nc2c1
inactive: [1] 98 % of control | [2] 98 % of control | [3] 106 % of control

Cc1ccc(S(=O)(=O)C(Sc2ccccc2)=S=NC(C)(C)C)cc1
inactive: [1] 104 % of control | [2] 98 % of control | [3] 109 % of control

Cc1ccc(S(=O)(=O)/C=C/c2ccc([N+](=O)[O-])o2)cc1
inactive: dose: 50.0 mg/kg/injection, schedule: Q01DX009 (ip), vehicle: suspension in saline 108 % of control | dose: 100.0 mg/kg/injection, schedule: Q01DX009 (ip), vehicle: suspension in saline 104 % of control | dose: 200.0 mg/kg/injection, schedule: Q01DX009 (ip), vehicle: suspension in saline 104 % of control

CC(NNC(=S)N1CCN(c2ccccn2)CC1)c1nccc2ccccc12 (configuration not stated)
inactive: dose: 12.5 mg/kg/injection, schedule: Q04DX002 (ip), vehicle: Klucel (hydroxypropylcellulose) (HPC) 100 % of control | dose: 25.0 mg/kg/injection, schedule: Q04DX002 (ip), vehicle: Klucel (hydroxypropylcellulose) (HPC) 100 % of control | dose: 50.0 mg/kg/injection, schedule: Q04DX002 (ip), vehicle: Klucel (hydroxypropylcellulose) (HPC) 103 % of control | dose: 100.0 mg/kg/injection, schedule: Q04DX002 (ip), vehicle: Klucel (hydroxypropylcellulose) (HPC) 122 % of control and 124 % of control | dose: 200.0 mg/kg/injection, schedule: Q04DX002 (ip), vehicle: Klucel (hydroxypropylcellulose) (HPC) 96 % of control

COc1c(-c2ccccc2)c(=O)n2c3cc(C)c(C)cc3n(C)c2c1C#N
inactive: [4] 100 % of control | [5] 86 % of control | [6] 89 % of control

CC1=CC(=O)[C@@H](O)[C@@]2(C)C1C[C@H]1OC(=O)[C@H](C/C=C(/C)C(C)C)[C@H]3C(C)C(O)C4(O)OC[C@@]31C42 (some centres not stated)
inactive: dose: 1.0 mg/kg/injection, schedule: Q01DX005 (ip), vehicle: saline with Tween-80 100 % of control | dose: 2.0 mg/kg/injection, schedule: Q01DX005 (ip), vehicle: saline with Tween-80 96 % of control | dose: 4.0 mg/kg/injection, schedule: Q01DX005 (ip), vehicle: saline with Tween-80 95 % of control | dose: 8.0 mg/kg/injection, schedule: Q01DX005 (ip), vehicle: saline with Tween-80 101 % of control

C1CC2OCC1O2 (configuration not stated)
inactive: dose: 50.0 mg/kg/injection, schedule: Q01DX009 (ip), vehicle: saline 100 % of control | [7] 106 % of control | [8] 100 % of control

c1ccc2c(c1)cnc1c3ccccc3nn21
inactive: [1] 102 % of control | [2] 96 % of control | [3] 103 % of control

[O-][n+]1ccccc1C(O)CSc1ccccc1 (configuration not stated)
inactive: [9] 100 % of control | [10] 101 % of control | [11] 100 % of control

COc1ccc(/C=C2\CCN=C2c2ccccc2)cc1OC
inactive: dose: 50.0 mg/kg/injection, schedule: Q01DX005 (ip), vehicle: Klucel (hydroxypropylcellulose) (HPC) 101 % of control | dose: 100.0 mg/kg/injection, schedule: Q01DX005 (ip), vehicle: Klucel (hydroxypropylcellulose) (HPC) 97 % of control | dose: 200.0 mg/kg/injection, schedule: Q01DX005 (ip), vehicle: Klucel (hydroxypropylcellulose) (HPC) 96 % of control

COc1cc(C2N3CCCN2CC3)cc(OC)c1OC (configuration not stated)
inactive: [7] 101 % of control | [8] 102 % of control

CNC(=S)N/N=C/c1nc2ccccc2c(=O)n1-c1ccc(Cl)cc1
inactive: dose: 100.0 mg/kg/injection, schedule: Q01DX001 (ip), vehicle: saline with Tween-80 102 % of control | dose: 200.0 mg/kg/injection, schedule: Q01DX001 (ip), vehicle: saline with Tween-80 98 % of control | dose: 400.0 mg/kg/injection, schedule: Q01DX001 (ip), vehicle: saline with Tween-80 92 % of control

O=C(Nc1ccc(F)cc1)Nc1nccs1
inactive: dose: 17.5 mg/kg/injection, schedule: Q01DX009 (ip), vehicle: Klucel (hydroxypropylcellulose) (HPC) 108 % of control | dose: 35.0 mg/kg/injection, schedule: Q01DX009 (ip), vehicle: Klucel (hydroxypropylcellulose) (HPC) 110 % of control | [9] 96 % of control | dose: 70.0 mg/kg/injection, schedule: Q01DX009 (ip), vehicle: Klucel (hydroxypropylcellulose) (HPC) 108 % of control | [10] 95 % of control | dose: 140.0 mg/kg/injection, schedule: Q01DX009 (ip), vehicle: Klucel (hydroxypropylcellulose) (HPC) 115 % of control | [11] 104 % of control

O=C(CCCCCCCC(=O)NO)NO
inactive: [4] 95 % of control | [5] 100 % of control | [6] 105 % of control

CC(C(=O)N1c2ccccc2Sc2ccccc21)[N+](C)(C)C (configuration not stated)
inactive: dose: 12.5 mg/kg/injection, schedule: Q01DX009 (ip), vehicle: saline with Tween-80 110 % of control | dose: 25.0 mg/kg/injection, schedule: Q01DX009 (ip), vehicle: saline with Tween-80 110 % of control | [9] 100 % of control

O=C(Nc1cccc(Cl)c1)N1CCNC1=S
inactive: [1] 102 % of control | [2] 104 % of control

O=C(OCC#CCOC(=O)C(Cl)Cl)C(Cl)Cl
inactive: dose: 100.0 mg/kg/injection, schedule: Q04DX003 (ip), vehicle: saline with Tween-80 108 % of control | dose: 200.0 mg/kg/injection, schedule: Q04DX003 (ip), vehicle: saline with Tween-80 104 % of control | dose: 400.0 mg/kg/injection, schedule: Q04DX003 (ip), vehicle: saline with Tween-80 100 % of control

CC(=O)OC(CCCCCCCCCCCCC(C)C)CC(=O)O (configuration not stated)
inactive: dose: 8.13 mg/kg/injection, schedule: Q01DX005 (ip), vehicle: Klucel + Tween-80 102 % of control | dose: 16.25 mg/kg/injection, schedule: Q01DX005 (ip), vehicle: Klucel + Tween-80 98 % of control | dose: 32.5 mg/kg/injection, schedule: Q01DX005 (ip), vehicle: Klucel + Tween-80 90 % of control | dose: 65.0 mg/kg/injection, schedule: Q01DX005 (ip), vehicle: Klucel + Tween-80 90 % of control
